# Laboratory results reported in patent US9725414B2, “Fungicidal N-bicycloalkyl and N-tricycloalkyl pyrazole-4-(thio)carboxamide derivatives” (priority 2011, dated 2017).
# Columns and labels:
# Pyrenophora teres [1] = experiment: Example E: in vivo preventive test on Pyrenophora teres (barley), DMF/emulsifier preparation; settings: 500 ppm of active ingredient, evaluated 7-9 days after inoculation
# In short: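 Young barley plants sprayed preventively with compound formulated in DMF/alkylaryl polyglycol ether emulsifier and diluted in water. One day later inoculated with aqueous Pyrenophora teres spore suspension, then held 48 h at 22 °C and 100% relative humidity.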
# Sphaerotheca fuliginea [2] = experiment: Example A: in vivo preventive test on Sphaerotheca fuliginea (cucumber); settings: 500 ppm of active ingredient, evaluated 7 days after inoculation
# Experimental: In Vivo Preventive Test on Sphaerotheca fuliginea (Cucumber) Solvent: 49 parts by weight of N,N-dimethylformamide Emulsifier: 1 part by weight of alkylarylpolyglycolether To produce a suitable preparation of active compound, 1 part by weight of active compound is mixed with the stated amounts of solvent and emulsifier, and the concentrate is diluted with water to the desired concentration. To test for preventive activity, young plants are sprayed with the preparation of active compound at the stated rate of application. One day after this treatment, the plants are inoculated with an aqueous spore suspension of Sphaerotheca fuliginea. Then the plants are placed in a greenhouse at approximately 23° C. and a relative atmospheric humidity of approximately 70%.
# Alternaria solani = experiment: Example C: in vivo preventive test on Alternaria solani (tomato); settings: 500 ppm of active ingredient, evaluated 7 days after inoculation
# In short: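 Young tomato plants sprayed preventively with compound formulated in DMF/emulsifier and diluted with water, then inoculated one day later with Alternaria solani spores. Plants were held one day at about 22° C, 100% humidity, then at about 20° C, 96% humidity.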
# Sphaerotheca fuliginea [3] = experiment: Example B: in vivo preventive test on Sphaerotheca fuliginea (powdery mildew on cucurbits), gherkin plants; settings: 500 ppm of active ingredient, grading 12 days after contamination
# In short: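 Gherkin plants grown at 24 °C were sprayed with compound at the Z11 cotyledon stage; controls received acetone/tween/DMSO/water without active. 24 h later, cotyledons were inoculated by spraying with Sphaerotheca fuliginea spores (100 000 spores per mL).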
# Puccinia recondita = experiment: Example M: in vivo preventive test on Puccinia recondita (brown rust on wheat); settings: 500 ppm of active ingredient, grading 12 days after contamination
# In short: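 Wheat (Scipion) sprayed with compound at 1-leaf stage, grown at 22° C. Inoculated 24 h later with a spore suspension at 100 000 spores per mL. Efficacy (%) graded 12 days after inoculation against solvent-treated controls.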
# [4] = log P by HPLC on reversed-phase column (C 18), EEC Directive 79831 Annex V.A8; format: physicochemical; settings: HPLC reversed-phase C 18, 40° C., 0.1% aqueous formic acid and acetonitrile gradient; several values = mixture of two or more isomers
# In short: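 Reversed-phase C18 HPLC at 40° C, 0.1% aqueous formic acid/acetonitrile linear gradient 10% to 90% acetonitrile, per EEC Directive 79831 Annex V.A8. log P obtained from retention time by linear interpolation between unbranched alkan-2-ones (C3-C16) of known log P.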
# Uromyces appendiculatus = experiment: Example Q: in vivo preventive test on Uromyces appendiculatus (bean rust); settings: Uromyces appendiculatus on bean plants, 500 ppm of active ingredient, grading 11 days after contamination
# Experimental: In Vivo Preventive Test on Uromyces appendiculatus (Bean Rust) […] Bean plants (“Saxa” variety), sown in starter cups on a 50/50 peat soil pozzolana substrate and grown at 24° C., are treated at the 2 leaf stage (9 cm height) by spraying with the active ingredient prepared as described above. Plants, used as controls, are treated with the mixture of acetone/tween/DMSO/water not containing the active material. After 24 hours, the plants are contaminated by spraying the leaves with an aqueous suspension of Uromyces appendiculatus spores (150 000 spores per mL). The spores are collected from infected plants and are suspended in water containing 2.5 mL/L of Tween 80 at 10%. […] Grading (% of efficacy) is carried out 11 days after the contamination, in comparison with the control plants.
# Septoria tritici [5] = experiment: Example I: in vivo preventive test on Septoria tritici (wheat), acetone/tween/DMSO preparation; settings: 500 ppm of active ingredient, grading 24 days after contamination
# In short: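 Scipion wheat grown at 22° C, sprayed at 1-leaf stage (10 cm); controls received acetone/tween/DMSO/water without active. Inoculated 24 h later with S. tritici spores (500 000/mL), held 72 h at 18° C, 100% RH, then 21 days at 90% RH. % efficacy vs controls scored 24 days post-inoculation.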
# Pyrenophora teres [6] = experiment: Example F: in vivo preventive test on Pyrenophora teres (barley), acetone/tween/DMSO preparation; settings: 500 ppm of active ingredient, barley, grading 14 days after contamination
# In short: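 Barley ("Plaisant") grown at 22° C was sprayed at the 1-leaf stage (10 cm) with active ingredient in acetone/tween/DMSO/water, with solvent-only controls. After 24 h, leaves were inoculated with Pyrenophora teres spores (12 000 spores per mL) from 12-day cultures. % efficacy versus controls graded 14 days post-contamination.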
# Alternaria brassicae = experiment: Example D: in vivo preventive test on Alternaria brassicae (leaf spot on radish); settings: 500 ppm of active ingredient, grading 6 days after contamination
# Experimental: In Vivo Preventive Test on Alternaria brassicae (Leaf Spot on Radish) […] Radish plants (“Pernod Clair” variety), sown in starter cups on a 50/50 peat soil pozzolana substrate and grown at 17° C., are treated at the cotyledon stage by spraying with the active ingredient prepared as described above. Plants, used as controls, are treated with the mixture of acetone/tween/DMSO/water not containing the active material. After 24 hours, the plants are contaminated by spraying the cotyledons with an aqueous suspension of Alternaria brassicae spores (50 000 spores per mL). The spores are collected from a 15-day-old culture. The contaminated radish plants are incubated at 20° C. and at 100% relative humidity. Grading (% of efficacy) is carried out 6 days after the contamination, in comparison with the control plants.
# Botrytis cinerea [7] = experiment: Example P: in vivo preventive test on Botrytis cinerea (grey mould), gherkin plants; settings: 500 ppm of active ingredient, grading 4 to 5 days after contamination
# Experimental: In Vivo Preventive Test on Botrytis cinerea (Grey Mould) […] Gherkin plants (“Vert petit de Paris” variety), sown in starter cups on a 50/50 peat soil pozzolana substrate and grown at 24° C. are treated at the Z11 cotyledon stage by spraying with the active ingredient prepared as described above. Plants, used as controls, are treated with the mixture of acetone/tween/DMSO/water not containing the active material. After 24 hours, the plants are contaminated by spraying the cotyledons with an aqueous suspension of cryopreserved Botrytis cinerea spores (50 000 spores per mL). The spores are suspended in a nutrient solution composed of 10 g/L of PDB, 50 g/L of D-Fructose, 2 g/L of NH4NO3 and 1 g/L of KH2PO4. The contaminated gherkin plants are incubated at 17° C. and at 90% relative humidity. Grading (% of efficacy) is carried out 4 to 5 days after the contamination, in comparison with the control plants.
# Botrytis cinerea [8] = experiment: Example O: in vivo protective test on Botrytis cinerea (beans); settings: 100 ppm of active ingredient, lesion size 2 days after inoculation
# Experimental: In Vivo Protective Test on Botrytis cinerea (Beans)
# Solvent: 24.5 parts by weight of acetone • 24.5 parts by weight of N,N-dimethylacetamide
# Emulsifier: 1 part by weight of alkylaryl polyglycol ether
# To produce a suitable preparation of active compound, 1 part by weight of active compound is mixed with the stated amounts of solvent and emulsifier, and the concentrate is diluted with water to the desired concentration.
# To test for preventive activity, young plants are sprayed with the preparation of active compound. After the spray coating has dried on, 2 small pieces of agar covered with growth of Botrytis cinerea are placed on each leaf. The inoculated plants are placed in a darkened chamber at 20° C. and a relative atmospheric humidity of 100%.
# 2 days after the inoculation, the size of the lesions on the leaves is evaluated. 0% means an efficacy which corresponds to that of the untreated control, while an efficacy of 100% means that no disease is observed.
# Venturia inaequalis = experiment: Example G: in vivo preventive test on Venturia inaequalis (apple scab); settings: 100 ppm of active ingredient, evaluated 10 days after inoculation
# Experimental: In Vivo Preventive Test on Venturia inaequalis (Apple Scab) Solvent: 24.5 parts by weight of acetone • 24.5 parts by weight of N,N-dimethylacetamide Emulsifier: 1 part by weight of alkylaryl polyglycol ether To produce a suitable preparation of active compound, 1 part by weight of active compound is mixed with the stated amounts of solvent and emulsifier, and the concentrate is diluted with water to the desired concentration. To test for preventive activity, young plants are sprayed with the preparation of active compound at the stated rate of application. After the spray coating has dried on, the plants are inoculated with an aqueous conidia suspension of the causal agent of apple scab (Venturia inaequalis) and then remain for 1 day in an incubation cabinet at approximately 20° C. and a relative atmospheric humidity of 100%. The plants are then placed in a greenhouse at approximately 21° C. and a relative atmospheric humidity of approximately 90%.
# [9] = tested on: Blumeria graminis f.sp. hordei; experiment: Example J: in vivo preventive test on Blumeria graminis (barley); settings: 500 ppm of active ingredient, evaluated 7 days after inoculation
# Experimental: (§1) In Vivo Preventive Test on Blumeria graminis (Barley) Solvent: 49 parts by weight of N,N-dimethylacetamide Emulsifier: 1 part by weight of alkylaryl polyglycol ether To produce a suitable preparation of active compound, 1 part by weight of active compound or active compound combination is mixed with the stated amounts of solvent and emulsifier, and the concentrate is diluted with water to the desired concentration. To test for preventive activity, young plants are sprayed with the preparation of active compound or active compound combination at the stated rate of application. After the spray coating has been dried, the plants are dusted with spores of Blumeria graminis f.sp. hordei.
# Leptosphaeria nodorum = experiment: Example K: in vivo preventive test on Leptosphaeria nodorum (wheat); settings: 500 ppm of active ingredient, evaluated 8 days after inoculation
# Experimental: as §1, with “Leptosphaeria nodorum (Wheat)” for “Blumeria graminis (Barley)”, “sprayed” for “dusted”, “a spore suspension” for “spores”, “Leptosphaeria nodorum. The plants remain for 48 hours in an incubation cabinet at approximately 20° C. and a relative atmospheric humidity of approximately 100%.” for “Blumeria graminis f.sp. hordei.”
# Septoria tritici [10] = experiment: Example H: in vivo preventive test on Septoria tritici (wheat), N,N-dimethylacetamide/emulsifier preparation; settings: 500 ppm of active ingredient, evaluated 21 days after inoculation
# Experimental: as §1, with “Septoria tritici (Wheat)” for “Blumeria graminis (Barley)”, “sprayed” for “dusted”, “a spore suspension” for “spores”, “Septoria tritici. The plants remain for 48 hours in an incubation cabinet at approximately 20° C. and a relative atmospheric humidity of approximately 100% and afterwards for 60 hours at approximately 15° C. in a translucent incubation cabinet at a relative atmospheric humidity of approximately 100%.” for “Blumeria graminis f.sp. hordei.”
logP [4],Compound,Efficacy (Pyrenophora teres [1]) [%],Efficacy (Sphaerotheca fuliginea [2]) [%],Efficacy (Alternaria solani) [%],other results
–,CC1CC(C)(C)C2CCCC(NC(=S)c3c(C(F)F)nn(C)c3F)C12 (mixture of isomers) [Example 18],95,83,80,–
–,CCc1nn(C)c(F)c1C(=O)N(C1CC1)C(C)C1CC2CCC1C2 (mixture of isomers) [Example 95],100,95,100,–
3.60,Cn1nc(C(F)F)c(C(=O)NC2CCCC3CCCCC32)c1F (centres unmarked) [Example 25],95,88,100,Efficacy (Sphaerotheca fuliginea [3]): 100%; Efficacy (Puccinia recondita): 100%; Efficacy (Uromyces appendiculatus): 80%; Efficacy (Septoria tritici [5]): 96%; Efficacy (Pyrenophora teres [6]): 86%
4.90,Cn1nc(C(F)F)c(C(=O)N(CC2CCCC3CCCCC32)C2CC2)c1F (centres unmarked) [Example 65],–,–,–,Efficacy (Sphaerotheca fuliginea [3]): 100%; Efficacy (Puccinia recondita): 100%; Efficacy (Alternaria brassicae): 100%; Efficacy (Uromyces appendiculatus): 100%; Efficacy (Septoria tritici [5]): 100%; Efficacy (Botrytis cinerea [7]): 100%; Efficacy (Pyrenophora teres [6]): 100%
4.37,Cn1cc(C(=O)N(CC2CCCC3CCCCC32)C2CC2)c(C(F)F)n1 (centres unmarked) [Example 66],–,–,–,Efficacy (Sphaerotheca fuliginea [3]): 100%; Efficacy (Puccinia recondita): 94%; Efficacy (Alternaria brassicae): 96%; Efficacy (Uromyces appendiculatus): 88%; Efficacy (Septoria tritici [5]): 100%; Efficacy (Botrytis cinerea [7]): 99%; Efficacy (Pyrenophora teres [6]): 100%
4.69,CC1C(CN(C(=O)c2c(C(F)F)nn(C)c2F)C2CC2)CC2CC1C2(C)C (centres unmarked) [Example 77],100,100,95,–
4.21,CC1C(CN(C(=O)c2cn(C)nc2C(F)F)C2CC2)CC2CC1C2(C)C (centres unmarked) [Example 78],100,95,100,–
4.82,CC1C(CNC(=S)c2c(C(F)F)nn(C)c2F)CC2CC1C2(C)C (centres unmarked) [Example 82],95,93,90,–
3.85,Cn1nc(C(F)F)c(C(=O)NCC2CCC3CC2C3(C)C)c1Cl (centres unmarked) [Example 83],100,90,95,–
3.46,Cc1nn(C)c(F)c1C(=O)N(C1CC1)C(C)C1CC2CCC1C2 (centres unmarked) [Example 96],100,95,100,–
4.47,CC(C1CC2CCC1C2)N(C(=S)c1c(C(F)F)nn(C)c1F)C1CC1 (centres unmarked) [Example 97],100,100,95,Efficacy (Botrytis cinerea [8]): 100%; Efficacy (Venturia inaequalis): 98%
4.34,Cc1nn(C)c(F)c1C(=S)N(C1CC1)C(C)C1CC2CCC1C2 (centres unmarked) [Example 98],100,93,95,–
4.86,CCc1nn(C)c(F)c1C(=O)N(C1CC1)C(C)C12CC3CC(CC(C3)C1)C2 (centres unmarked) [Example 104],95,96,95,Efficacy [9]: 78%; Efficacy (Leptosphaeria nodorum): 83%; Efficacy (Septoria tritici [10]): 90%
